Source: patent US20250163119A1, “COMPOUNDS FOR THE TREATMENT OF DIABETES OR OBESITY” (Eli Lilly and Company, priority 2023, published 2025)
*1 amine or outer side, *2 acyl side, *3 side chain or, on linkers, in order; H or OH if unused. Side-chain parts run from the residue outwards. [ ]: non-standard residue; d: D form. The star is where a group is joined. C20 diacid = O=C(O)CCCCCCCCCCCCCCCCCCC(=O)*; C18 diacid = O=C(O)CCCCCCCCCCCCCCCCC(=O)*; γGlu = O=C(O)[C@H](CCC(=O)[*:2])N[*:1]; εLys = N[C@@H](CCCCN[*:1])C(=O)[*:2]; αMeL = CC(C)C[C@](C)(N)C(=O)O; AEEA = NCCOCCOCC(=O)O; Aib = CC(C)(N)C(=O)O; Ahx = NCCCCCC(=O)O; βAla = NCCC(=O)O

Experiments:
[1] = target: T1, human CRHR1 (Homo sapiens, UniProt P34998); assay: Human CRHR1 cAMP assay (HTRF) in HEK293 cells stably expressing human CRHR1; type: cell-based; details: HEK293 cells overexpressing human CRHR1; relative EC50, maximum 66 nM human UCN1; mean ± SE; read-out: hCRHR1 cAMP EC50 (pM, ± SE)
T1 construct: expressed in transfected cells
T1 sequence (P34998 24-415): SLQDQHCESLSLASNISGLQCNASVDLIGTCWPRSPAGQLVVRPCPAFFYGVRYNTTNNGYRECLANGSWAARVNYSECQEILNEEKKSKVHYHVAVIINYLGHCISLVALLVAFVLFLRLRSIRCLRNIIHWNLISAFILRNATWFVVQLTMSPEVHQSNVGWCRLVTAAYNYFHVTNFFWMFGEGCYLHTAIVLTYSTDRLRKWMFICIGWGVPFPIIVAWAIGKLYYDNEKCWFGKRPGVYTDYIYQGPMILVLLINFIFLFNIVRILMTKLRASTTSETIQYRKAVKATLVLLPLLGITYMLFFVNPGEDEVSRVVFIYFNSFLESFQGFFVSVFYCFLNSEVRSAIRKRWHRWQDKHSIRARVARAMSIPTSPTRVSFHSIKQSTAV
Summary of the method: (§1)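 Peptides were tested as 1:3 dilution series on thawed HEK293 cells stably expressing the receptor, in MEM with 0.1% casein, 5 mM HEPES pH 7.4 and 0.25 mM IBMX. CRHR1 cells (25,000/well) were incubated 1 h at 37° C; CRHR2 cells (5,000/well) 30 min at room temperature. cAMP was read by HTRF (665/620 nm) against a cAMP standard curve.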

[2] = target: T2, human CRHR2 (Homo sapiens, UniProt Q13324); assay: Human CRHR2 cAMP assay (HTRF) in HEK293 cells stably expressing human CRHR2; type: cell-based; details: HEK293 cells overexpressing human CRHR2; relative EC50, maximum 10 nM human UCN2; mean ± SE; read-out: hCRHR2 cAMP EC50 (pM, ± SE)
T2 construct: expressed in transfected cells
T2 sequence (Q13324 1-438 isoform Q13324-2): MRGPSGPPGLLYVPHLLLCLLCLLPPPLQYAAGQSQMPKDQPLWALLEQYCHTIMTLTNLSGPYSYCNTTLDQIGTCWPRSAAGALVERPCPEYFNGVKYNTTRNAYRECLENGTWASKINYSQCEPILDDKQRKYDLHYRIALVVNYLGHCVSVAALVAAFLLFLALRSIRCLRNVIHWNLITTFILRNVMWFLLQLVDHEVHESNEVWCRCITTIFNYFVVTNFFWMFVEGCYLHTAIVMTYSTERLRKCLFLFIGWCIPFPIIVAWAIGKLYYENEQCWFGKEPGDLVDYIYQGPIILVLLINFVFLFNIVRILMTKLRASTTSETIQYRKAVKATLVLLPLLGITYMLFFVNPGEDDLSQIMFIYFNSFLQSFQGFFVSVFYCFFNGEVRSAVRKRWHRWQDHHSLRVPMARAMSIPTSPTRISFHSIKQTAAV
Summary of the method: as §1

| Substance | EC50 [1] [pM] | EC50 [2] [pM] |
| --- | --- | --- |
| Ac-GSPSIVTS[αMeL]DVPT[Aib][αMeL]LQKILEQERAEKARQQAK([βAla-Ser-βAla-Ser-γGlu-C20 diacid])EAAEILAQV-NH2 [SEQ ID NO: 10, Ac-GSPSIVTS αMeL DVPT Aib αMeL LQKILEQERAEKARQQAK((βA)-S-(βA)-S-γE-CO-(CH2)18-CO2H)EAAEILAQV-NH2] | > 1e+07 | 10.1 ± 1.1 |
| Ac-GSPSIVTS[αMeL]DVPT[Aib][αMeL]LQKILEQERAEKARQQAK([γGlu-AEEA-AEEA-εLys-C20 diacid])EAAEILAQV-NH2 [SEQ ID NO: 17, Ac-GSPSIVTS αMeL DVPT Aib αMeL LQKILEQERAEKARQQAK(γE-(2-[2-(2-Amino-ethoxy)-ethoxy]-acetyl)2-ϵK-CO-(CH2)18-CO2H)EAAEILAQV-NH2] | > 1e+07 | 9.5 ± 0.9 |
| Ac-GSPSIVTS[αMeL]DVPT[Aib][αMeL]LQKILEQERAEKARQQAK([γGlu-AEEA-Ahx-C20 diacid])EAAEILAQV-NH2 [SEQ ID NO: 5, Ac-GSPSIVTS αMeL DVPT Aib αMeL LQKILEQERAEKARQQAK(γE-(2-[2-(2-Amino-ethoxy)-ethoxy]-acetyl)-Ahx-CO-(CH2)18-CO2H)EAAEILAQV-NH2] | > 1e+07 | 10.7 ± 0.8 |
| Ac-GSPSIVTS[αMeL]DVPT[Aib][αMeL]LQKILEQERAEKARQQAK([γGlu-AEEA-εLys-C18 diacid])EAAEILAQV-NH2 [SEQ ID NO: 21, Ac-GSPSIVTS αMeL DVPT Aib αMeL LQKILEQERAEKARQQAK(γE-(2-[2-(2-Amino-ethoxy)-ethoxy]-acetyl)-ϵK-CO-(CH2)16-CO2H)EAAEILAQV-NH2] | > 1e+07 | 16.3 ± 1.3 |
| Ac-GSPSIVTS[αMeL]DVPT[Aib][αMeL]LQKILEQERAEKARQQAK([γGlu-Pro-Lys-Glu-Ahx-C20 diacid])EAAEILAQV-NH2 [SEQ ID NO: 11, Ac-GSPSIVTS αMeL DVPT Aib αMeL LQKILEQERAEKARQQAK(γE-PKE-Ahx-CO-(CH2)18-CO2H)EAAEILAQV-NH2] | > 1e+07 | 8.3 ± 1.4 |
| Ac-GSPSIVTS[αMeL]DVPT[Aib][αMeL]LQKILEQERAEKARQQAK([γGlu-Pro-Lys-Glu-εLys-C20 diacid])EAAEILAQV-NH2 [SEQ ID NO: 13, Ac-GSPSIVTS αMeL DVPT Aib αMeL LQKILEQERAEKARQQAK(γE-PKE-ϵK-CO-(CH2)18-CO2H)EAAEILAQV-NH2] | > 1e+07 | 7.9 ± 0.3 |
| Ac-GSPSIVTS[αMeL]DVPT[Aib][αMeL]LQKILEQERAEKARQQAK([γGlu-Pro-Pro-Pro-εLys-C20 diacid])EAAEILAQV-NH2 [SEQ ID NO: 14, Ac-GSPSIVTS αMeL DVPT Aib αMeL LQKILEQERAEKARQQAK(γE-PPP-EK-CO-(CH2)18-CO2H)EAAEILAQV-NH2] | > 1e+07 | 8.3 ± 0.5 |
| Ac-GSPSIVTS[αMeL]DVPT[Aib][αMeL]LQKILEQERAEKARQQAK([γGlu-εLys-AEEA-εLys-C20 diacid])EAAEILAQV-NH2 [SEQ ID NO: 19, Ac-GSPSIVTS αMeL DVPT Aib αMeL LQKILEQERAEKARQQAK(γE-EK-(2-[2-(2-Amino-ethoxy)-ethoxy]-acetyl)-ϵK-CO-(CH2)18-CO2H)EAAEILAQV-NH2] | > 1e+07 | 11.1 ± 0.5 |
| Ac-GSPSIVTS[αMeL]DVPT[Aib][αMeL]LQKILEQERAEKARQQAK([γGlu-εLys-γGlu-εLys-C20 diacid])EAAEILAQV-NH2 [SEQ ID NO: 18, Ac-GSPSIVTS αMeL DVPT Aib αMeL LQKILEQERAEKARQQAK(γE-ϵK-γE-ϵK-CO-(CH2)18-CO2H)EAAEILAQV-NH2] | > 1e+07 | 10.9 ± 1.3 |
| Ac-GSPSIVTS[αMeL]DVPT[Aib][αMeL]LQKILEQERAEKARQQAKEAAEILAQV-NH2 [SEQ ID NO: 20] | > 1e+07 | 15.3 ± 1.4 |
| Ac-PPPIVTS[αMeL]D[dV]PT[Aib][αMeL]LQKLLEQERAEKARQQAK([γGlu-AEEA-εLys-C20 diacid])EAAEILAQV-NH2 [SEQ ID NO: 47, Ac-PPPIVTS αMeL D (D-Val) PT Aib αMeL LQKLLEQERAEKARQQAK(γE-(2-[2-(2-Amino-ethoxy)-ethoxy]-acetyl)-ϵK-CO-(CH2)18-CO2H)EAAEILAQV-NH2] | 2.3e+06 | 17.5 ± 2.2 |
